{"source": "patent US20100004234A1", "about": "“SPECIFIC KINASE INHIBITORS” (Kosan Biosciences Incorporated, priority 2004, published 2010)", "key": {"[1]": {"test_system": "phosphorylated FLT3, MEK and ERK in MV-4-11 (FLT3(ITD))", "assay": "Phosphorylation state of kinases in MV-4-11 cells", "type": "cell-based", "conditions": "MV-4-11, FLT3(ITD) mutation", "description": "The downstream effects of inhibition of a particular kinase (e.g. MEK) can be established by measuring the phosphorylation state of several proteins that require that kinase for phosphorylation (e.g. ERK1). Cultured cells are treated with hypothemycin or other lactone analogs described herein, and Western blots of cell extracts are probed with antibodies specific for the unmodified and phosphorylated forms of the downstream targets. As an example, the effects of hypothemycin on MEK1/2 can be determined by measuring the level of ERK1/2 phosphorylation."}, "PKBγ(h)": {"biological_target": "PKBγ(h) (Homo sapiens, UniProt Q9Y243)", "assay": "Kinase panel, residual activity", "type": "biochemical", "conditions": "read-out: Percent residual activity", "description": "(§1) In this panel of 124 kinases, 18 of the 19 kinases identified as having an active site cysteine were inhibited to some extent by hypothemycin at a concentration of 0.2 μM and/or 2 μM."}, "Pim-1(h)": {"biological_target": "Pim-1(h) (Homo sapiens, UniProt P11309)", "assay": "Kinase panel, residual activity", "type": "biochemical", "conditions": "read-out: Percent residual activity", "description": "as §1"}, "Flt1(h)": {"biological_target": "Flt1(h) (Homo sapiens, UniProt P17948)", "sequence (P17948 27-1338)": "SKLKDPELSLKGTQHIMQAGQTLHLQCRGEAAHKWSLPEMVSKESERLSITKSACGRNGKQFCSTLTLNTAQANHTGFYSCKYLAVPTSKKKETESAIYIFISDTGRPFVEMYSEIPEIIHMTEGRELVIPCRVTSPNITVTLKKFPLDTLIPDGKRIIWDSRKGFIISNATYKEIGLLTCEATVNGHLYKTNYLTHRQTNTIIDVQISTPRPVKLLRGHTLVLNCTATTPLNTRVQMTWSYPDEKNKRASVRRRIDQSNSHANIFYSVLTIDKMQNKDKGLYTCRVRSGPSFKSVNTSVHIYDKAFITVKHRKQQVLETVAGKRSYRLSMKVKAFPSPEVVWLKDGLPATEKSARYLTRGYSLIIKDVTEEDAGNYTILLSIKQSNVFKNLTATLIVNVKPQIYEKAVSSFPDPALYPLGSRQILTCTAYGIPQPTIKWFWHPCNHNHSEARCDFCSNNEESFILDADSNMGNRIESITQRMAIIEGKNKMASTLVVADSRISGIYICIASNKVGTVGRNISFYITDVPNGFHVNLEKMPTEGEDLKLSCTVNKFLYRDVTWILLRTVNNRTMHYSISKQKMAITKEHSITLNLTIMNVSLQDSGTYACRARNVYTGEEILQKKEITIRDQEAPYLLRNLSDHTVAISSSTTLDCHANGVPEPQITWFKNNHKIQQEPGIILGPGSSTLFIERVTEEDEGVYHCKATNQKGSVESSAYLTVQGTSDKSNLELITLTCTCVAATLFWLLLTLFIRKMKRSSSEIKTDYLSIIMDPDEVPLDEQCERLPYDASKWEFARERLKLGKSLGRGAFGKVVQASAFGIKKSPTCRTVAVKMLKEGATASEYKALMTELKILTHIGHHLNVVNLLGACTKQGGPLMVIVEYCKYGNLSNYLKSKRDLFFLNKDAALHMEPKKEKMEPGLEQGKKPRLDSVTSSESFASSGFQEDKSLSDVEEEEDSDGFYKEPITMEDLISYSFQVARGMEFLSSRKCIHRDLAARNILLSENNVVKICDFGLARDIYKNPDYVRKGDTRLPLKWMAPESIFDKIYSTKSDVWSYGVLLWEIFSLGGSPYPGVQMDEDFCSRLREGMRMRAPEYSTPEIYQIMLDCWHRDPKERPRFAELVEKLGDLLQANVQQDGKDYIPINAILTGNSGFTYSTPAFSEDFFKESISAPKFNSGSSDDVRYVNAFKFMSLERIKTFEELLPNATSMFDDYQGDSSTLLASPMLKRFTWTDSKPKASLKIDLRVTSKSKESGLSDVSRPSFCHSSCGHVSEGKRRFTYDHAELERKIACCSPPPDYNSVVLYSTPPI", "assay": "Kinase panel, residual activity", "type": "biochemical", "conditions": "read-out: Percent residual activity", "description": "as §1"}, "ROCK-II(h)": {"biological_target": "ROCK-II(h) (Homo sapiens, UniProt O75116)", "assay": "Kinase panel, residual activity", "type": "biochemical", "conditions": "read-out: Percent residual activity", "description": "as §1"}, "EphB4(h)": {"biological_target": "EphB4(h) (Homo sapiens, UniProt P54760)", "assay": "Kinase panel, residual activity", "type": "biochemical", "conditions": "read-out: Percent residual activity", "description": "as §1"}, "cKit(h)": {"biological_target": "cKit(h) (Homo sapiens, UniProt P10721)", "sequence (P10721 26-976)": "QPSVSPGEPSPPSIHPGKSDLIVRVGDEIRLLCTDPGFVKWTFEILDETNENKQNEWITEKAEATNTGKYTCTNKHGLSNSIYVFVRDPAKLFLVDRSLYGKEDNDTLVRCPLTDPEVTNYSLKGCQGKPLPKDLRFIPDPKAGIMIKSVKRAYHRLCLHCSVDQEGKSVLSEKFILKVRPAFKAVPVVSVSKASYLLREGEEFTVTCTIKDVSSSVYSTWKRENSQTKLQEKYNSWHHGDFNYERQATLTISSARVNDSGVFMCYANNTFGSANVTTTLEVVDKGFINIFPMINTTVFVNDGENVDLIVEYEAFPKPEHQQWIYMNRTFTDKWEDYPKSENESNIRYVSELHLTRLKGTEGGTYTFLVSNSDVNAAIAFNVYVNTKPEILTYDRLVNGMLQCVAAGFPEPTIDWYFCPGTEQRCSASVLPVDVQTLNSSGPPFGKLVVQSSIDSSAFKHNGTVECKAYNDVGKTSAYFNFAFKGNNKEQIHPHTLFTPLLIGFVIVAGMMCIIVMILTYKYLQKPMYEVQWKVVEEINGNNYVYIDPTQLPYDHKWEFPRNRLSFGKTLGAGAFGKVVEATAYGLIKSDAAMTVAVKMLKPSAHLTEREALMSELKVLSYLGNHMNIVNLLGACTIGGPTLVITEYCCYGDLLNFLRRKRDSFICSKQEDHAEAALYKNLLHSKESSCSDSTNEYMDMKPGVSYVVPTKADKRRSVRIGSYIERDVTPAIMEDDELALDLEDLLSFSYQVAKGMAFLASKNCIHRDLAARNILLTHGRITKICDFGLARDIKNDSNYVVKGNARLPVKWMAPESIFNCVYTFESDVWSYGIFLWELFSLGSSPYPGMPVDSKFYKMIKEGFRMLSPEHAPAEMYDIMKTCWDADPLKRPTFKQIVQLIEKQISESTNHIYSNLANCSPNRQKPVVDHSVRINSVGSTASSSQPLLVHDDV", "assay": "Kinase panel, residual activity", "type": "biochemical", "conditions": "read-out: Percent residual activity", "description": "as §1"}, "CaMKIV(h)": {"biological_target": "CaMKIV(h) (Homo sapiens, UniProt Q16566)", "assay": "Kinase panel, residual activity", "type": "biochemical", "conditions": "read-out: Percent residual activity", "description": "as §1"}, "MAPK1(h)": {"biological_target": "MAPK1(h) (Homo sapiens, UniProt P27361)", "assay": "Kinase panel, residual activity", "type": "biochemical", "conditions": "read-out: Percent residual activity", "description": "as §1"}, "CDK5/p35(h)": {"biological_target": "CDK5/p35(h) (Homo sapiens, UniProt Q00535)", "assay": "Kinase panel, residual activity", "type": "biochemical", "conditions": "read-out: Percent residual activity", "description": "as §1"}, "PKBβ(h)": {"biological_target": "PKBβ(h) (Homo sapiens, UniProt P31751)", "assay": "Kinase panel, residual activity", "type": "biochemical", "conditions": "read-out: Percent residual activity", "description": "as §1"}, "Ret(h)": {"biological_target": "Ret(h) (Homo sapiens, UniProt P07949)", "assay": "Kinase panel, residual activity", "type": "biochemical", "conditions": "read-out: Percent residual activity", "description": "as §1"}, "Fyn(h)": {"biological_target": "Fyn(h) (Homo sapiens, UniProt P06241)", "assay": "Kinase panel, residual activity", "type": "biochemical", "conditions": "read-out: Percent residual activity", "description": "as §1"}, "PKCμ(h)": {"biological_target": "PKCμ(h) (Homo sapiens, UniProt Q15139)", "sequence (Q15139 whole entry)": "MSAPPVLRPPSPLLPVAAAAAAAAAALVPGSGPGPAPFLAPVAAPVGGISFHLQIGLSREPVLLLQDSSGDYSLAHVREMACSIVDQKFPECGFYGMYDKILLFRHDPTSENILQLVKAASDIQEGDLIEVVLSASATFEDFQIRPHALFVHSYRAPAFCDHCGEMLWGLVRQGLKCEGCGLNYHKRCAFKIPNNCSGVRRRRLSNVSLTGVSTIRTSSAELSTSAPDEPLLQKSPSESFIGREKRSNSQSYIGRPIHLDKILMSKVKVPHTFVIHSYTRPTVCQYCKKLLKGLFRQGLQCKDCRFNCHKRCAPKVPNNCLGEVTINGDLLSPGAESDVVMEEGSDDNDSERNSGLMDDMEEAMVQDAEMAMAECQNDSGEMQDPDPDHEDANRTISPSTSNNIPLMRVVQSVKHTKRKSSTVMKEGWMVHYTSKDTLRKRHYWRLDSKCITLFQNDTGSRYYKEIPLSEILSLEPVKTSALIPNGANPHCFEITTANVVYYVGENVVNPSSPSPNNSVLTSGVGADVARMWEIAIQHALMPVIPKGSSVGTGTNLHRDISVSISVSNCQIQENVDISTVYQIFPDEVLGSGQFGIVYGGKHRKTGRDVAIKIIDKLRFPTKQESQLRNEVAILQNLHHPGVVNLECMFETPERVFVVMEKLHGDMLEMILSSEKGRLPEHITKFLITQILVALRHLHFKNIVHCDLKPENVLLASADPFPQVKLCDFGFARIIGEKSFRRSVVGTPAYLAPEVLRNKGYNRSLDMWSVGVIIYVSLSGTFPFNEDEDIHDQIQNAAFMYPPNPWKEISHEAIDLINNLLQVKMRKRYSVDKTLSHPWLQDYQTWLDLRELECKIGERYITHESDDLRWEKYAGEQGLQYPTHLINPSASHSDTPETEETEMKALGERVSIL", "assay": "Kinase panel, residual activity", "type": "biochemical", "conditions": "read-out: Percent residual activity", "description": "as §1"}, "CDK7/cyclinH/MAT1(h)": {"biological_target": "CDK7/cyclinH/MAT1(h) (Homo sapiens, UniProt P50613)", "assay": "Kinase panel, residual activity", "type": "biochemical", "conditions": "read-out: Percent residual activity", "description": "as §1"}, "Fes(h)": {"biological_target": "Fes(h) (Homo sapiens, UniProt P07332)", "assay": "Kinase panel, residual activity", "type": "biochemical", "conditions": "read-out: Percent residual activity", "description": "as §1"}, "SAPK2b(h)": {"biological_target": "SAPK2b(h) (Homo sapiens, UniProt Q15759)", "assay": "Kinase panel, residual activity", "type": "biochemical", "conditions": "read-out: Percent residual activity", "description": "as §1"}, "CK2(h)": {"biological_target": "CK2(h) (Homo sapiens, UniProt P68400)", "assay": "Kinase panel, residual activity", "type": "biochemical", "conditions": "read-out: Percent residual activity", "description": "as §1"}, "MEK1(h)": {"biological_target": "MEK1(h) (Homo sapiens, UniProt Q02750)", "sequence (Q02750 whole entry)": "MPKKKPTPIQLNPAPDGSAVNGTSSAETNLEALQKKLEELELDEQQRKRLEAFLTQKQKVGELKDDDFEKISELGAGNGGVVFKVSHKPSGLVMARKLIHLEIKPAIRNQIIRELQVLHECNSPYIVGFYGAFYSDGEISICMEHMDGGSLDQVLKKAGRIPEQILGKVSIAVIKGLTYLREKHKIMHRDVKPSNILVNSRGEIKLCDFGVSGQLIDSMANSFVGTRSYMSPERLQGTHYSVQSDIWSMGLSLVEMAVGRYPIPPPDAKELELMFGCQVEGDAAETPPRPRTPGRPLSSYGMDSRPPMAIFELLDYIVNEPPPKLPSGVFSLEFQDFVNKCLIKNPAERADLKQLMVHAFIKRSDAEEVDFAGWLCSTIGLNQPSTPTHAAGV", "assay": "Kinase panel, residual activity", "type": "biochemical", "conditions": "read-out: Percent residual activity", "description": "as §1"}, "PDGFRα(h)": {"biological_target": "PDGFRα(h) (Homo sapiens, UniProt P16234)", "sequence (P16234 24-1089)": "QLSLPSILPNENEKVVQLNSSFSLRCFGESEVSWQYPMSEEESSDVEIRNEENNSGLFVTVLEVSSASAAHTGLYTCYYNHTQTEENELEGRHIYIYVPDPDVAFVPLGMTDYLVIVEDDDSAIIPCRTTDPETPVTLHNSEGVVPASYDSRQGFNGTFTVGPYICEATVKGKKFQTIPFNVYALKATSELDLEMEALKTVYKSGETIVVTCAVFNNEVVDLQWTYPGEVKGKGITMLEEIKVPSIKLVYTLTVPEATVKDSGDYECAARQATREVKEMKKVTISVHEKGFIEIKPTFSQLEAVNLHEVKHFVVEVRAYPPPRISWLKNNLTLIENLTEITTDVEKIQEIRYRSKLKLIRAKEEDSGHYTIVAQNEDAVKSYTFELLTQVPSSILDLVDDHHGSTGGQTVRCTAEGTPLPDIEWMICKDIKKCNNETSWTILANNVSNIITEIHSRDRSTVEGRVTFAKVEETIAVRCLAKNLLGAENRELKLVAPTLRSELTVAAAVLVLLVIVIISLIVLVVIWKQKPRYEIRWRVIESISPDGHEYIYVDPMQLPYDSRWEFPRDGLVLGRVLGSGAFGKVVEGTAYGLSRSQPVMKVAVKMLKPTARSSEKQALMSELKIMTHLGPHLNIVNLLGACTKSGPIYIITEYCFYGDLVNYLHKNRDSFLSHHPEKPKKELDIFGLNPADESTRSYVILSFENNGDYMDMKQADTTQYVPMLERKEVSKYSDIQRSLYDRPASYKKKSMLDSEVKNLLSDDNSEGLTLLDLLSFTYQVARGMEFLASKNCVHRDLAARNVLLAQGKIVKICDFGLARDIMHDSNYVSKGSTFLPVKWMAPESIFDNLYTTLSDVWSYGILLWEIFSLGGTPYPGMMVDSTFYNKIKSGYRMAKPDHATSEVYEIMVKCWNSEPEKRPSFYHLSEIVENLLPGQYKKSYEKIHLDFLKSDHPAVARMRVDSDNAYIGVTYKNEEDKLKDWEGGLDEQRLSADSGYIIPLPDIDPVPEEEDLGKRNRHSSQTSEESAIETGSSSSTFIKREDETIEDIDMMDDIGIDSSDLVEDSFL", "assay": "Kinase panel, residual activity", "type": "biochemical", "conditions": "read-out: Percent residual activity", "description": "as §1"}, "RIPK2(h)": {"biological_target": "RIPK2(h) (Homo sapiens, UniProt O43353)", "assay": "Kinase panel, residual activity", "type": "biochemical", "conditions": "read-out: Percent residual activity", "description": "as §1"}, "MKK6(h)": {"biological_target": "MKK6(h) (Homo sapiens, UniProt P52564)", "sequence (P52564 whole entry)": "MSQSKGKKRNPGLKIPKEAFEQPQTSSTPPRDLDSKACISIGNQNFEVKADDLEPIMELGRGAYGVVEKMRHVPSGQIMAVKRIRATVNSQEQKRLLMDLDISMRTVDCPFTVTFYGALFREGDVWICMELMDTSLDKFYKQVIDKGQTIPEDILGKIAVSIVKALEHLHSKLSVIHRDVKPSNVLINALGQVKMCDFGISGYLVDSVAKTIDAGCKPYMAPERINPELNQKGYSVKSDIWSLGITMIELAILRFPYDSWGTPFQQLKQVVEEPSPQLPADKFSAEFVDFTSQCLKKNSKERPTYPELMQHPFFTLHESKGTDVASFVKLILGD", "assay": "Kinase panel, residual activity", "type": "biochemical", "conditions": "read-out: Percent residual activity", "description": "as §1"}, "PKCε(h)": {"biological_target": "PKCε(h) (Homo sapiens, UniProt Q02156)", "assay": "Kinase panel, residual activity", "type": "biochemical", "conditions": "read-out: Percent residual activity", "description": "as §1"}, "Tie2(h)": {"biological_target": "Tie2(h) (Homo sapiens, UniProt Q02763)", "assay": "Kinase panel, residual activity", "type": "biochemical", "conditions": "read-out: Percent residual activity", "description": "as §1"}, "PAK4(h)": {"biological_target": "PAK4(h) (Homo sapiens, UniProt O96013)", "assay": "Kinase panel, residual activity", "type": "biochemical", "conditions": "read-out: Percent residual activity", "description": "as §1"}, "IKKα(h)": {"biological_target": "IKKα(h) (Homo sapiens, UniProt O15111)", "assay": "Kinase panel, residual activity", "type": "biochemical", "conditions": "read-out: Percent residual activity", "description": "as §1"}, "SGK(h)": {"biological_target": "SGK(h) (Homo sapiens, UniProt O00141)", "assay": "Kinase panel, residual activity", "type": "biochemical", "conditions": "read-out: Percent residual activity", "description": "as §1"}, "MAPKAP-K3(h)": {"biological_target": "MAPKAP-K3(h) (Homo sapiens, UniProt Q16644)", "assay": "Kinase panel, residual activity", "type": "biochemical", "conditions": "read-out: Percent residual activity", "description": "as §1"}, "PRAK(h)": {"biological_target": "PRAK(h) (Homo sapiens, UniProt Q8IW41)", "assay": "Kinase panel, residual activity", "type": "biochemical", "conditions": "read-out: Percent residual activity", "description": "as §1"}, "Fgr(h)": {"biological_target": "Fgr(h) (Homo sapiens, UniProt P09769)", "assay": "Kinase panel, residual activity", "type": "biochemical", "conditions": "read-out: Percent residual activity", "description": "as §1"}, "CDK1/cyclinB(h)": {"biological_target": "CDK1/cyclinB(h) (Homo sapiens, UniProt P06493)", "assay": "Kinase panel, residual activity", "type": "biochemical", "conditions": "read-out: Percent residual activity", "description": "as §1"}, "ErbB4(h)": {"biological_target": "ErbB4(h) (Homo sapiens, UniProt Q15303)", "assay": "Kinase panel, residual activity", "type": "biochemical", "conditions": "read-out: Percent residual activity", "description": "as §1"}, "CDK2/cyclinE(h)": {"biological_target": "CDK2/cyclinE(h) (Homo sapiens, UniProt P24941)", "assay": "Kinase panel, residual activity", "type": "biochemical", "conditions": "read-out: Percent residual activity", "description": "as §1"}, "Rsk2(h)": {"biological_target": "Rsk2(h) (Homo sapiens, UniProt P51812)", "assay": "Kinase panel, residual activity", "type": "biochemical", "conditions": "read-out: Percent residual activity", "description": "as §1"}}, "data": [{"smiles": "COc1cc(O)c2c(c1)[C@H]1O[C@@H]1C[C@H](O)[C@H](O)C(=O)/C=C\\C[C@H](C)OC2=O", "note": "[Hypothemycin, hypothemycin]", "values": [{"measurement": "phosphorylated forms of FLT3, MEK and ERK", "setting": "[1]", "result": "loss of phosphorylated forms"}, {"measurement": "remaining activity at 0.2 µM", "setting": "PKBγ(h)", "result": 102, "unit": "%"}, {"measurement": "remaining activity at 0.2 µM", "setting": "Pim-1(h)", "result": 100, "unit": "%"}, {"measurement": "remaining activity at 0.2 µM", "setting": "Flt1(h); 0.2 μM", "result": 2, "unit": "%"}, {"measurement": "remaining activity at 2 µM", "setting": "Flt1(h); 2.0 μM", "result": 7, "unit": "%"}, {"measurement": "remaining activity at 0.2 µM", "setting": "ROCK-II(h)", "result": 104, "unit": "%"}, {"measurement": "remaining activity at 0.2 µM", "setting": "EphB4(h)", "result": 82, "unit": "%"}, {"measurement": "remaining activity at 0.2 µM", "setting": "cKit(h); 0.2 μM", "result": 93, "unit": "%"}, {"measurement": "remaining activity at 2 µM", "setting": "cKit(h); 2.0 μM", "result": 21, "unit": "%"}, {"measurement": "remaining activity at 0.2 µM", "setting": "CaMKIV(h)", "result": 102, "unit": "%"}, {"measurement": "remaining activity at 0.2 µM", "setting": "MAPK1(h); 0.2 μM", "result": 79, "unit": "%"}, {"measurement": "remaining activity at 2 µM", "setting": "MAPK1(h); 2.0 μM", "result": 10, "unit": "%"}, {"measurement": "remaining activity at 0.2 µM", "setting": "CDK5/p35(h)", "result": 103, "unit": "%"}, {"measurement": "remaining activity at 0.2 µM", "setting": "PKBβ(h)", "result": 91, "unit": "%"}, {"measurement": "remaining activity at 0.2 µM", "setting": "Ret(h)", "result": 104, "unit": "%"}, {"measurement": "remaining activity at 0.2 µM", "setting": "Fyn(h)", "result": 87, "unit": "%"}, {"measurement": "remaining activity at 0.2 µM", "setting": "PKCμ(h); 0.2 μM", "result": 34, "unit": "%"}, {"measurement": "remaining activity at 2 µM", "setting": "PKCμ(h); 2.0 μM", "result": 6, "unit": "%"}, {"measurement": "remaining activity at 0.2 µM", "setting": "CDK7/cyclinH/MAT1(h)", "result": 101, "unit": "%"}, {"measurement": "remaining activity at 0.2 µM", "setting": "Fes(h)", "result": 92, "unit": "%"}, {"measurement": "remaining activity at 0.2 µM", "setting": "SAPK2b(h)", "result": 104, "unit": "%"}, {"measurement": "remaining activity at 0.2 µM", "setting": "CK2(h)", "result": 99, "unit": "%"}, {"measurement": "remaining activity at 0.2 µM", "setting": "MEK1(h); 0.2 μM", "result": 54, "unit": "%"}, {"measurement": "remaining activity at 2 µM", "setting": "MEK1(h); 2.0 μM", "result": 8, "unit": "%"}, {"measurement": "remaining activity at 0.2 µM", "setting": "PDGFRα(h); 0.2 μM", "result": 77, "unit": "%"}, {"measurement": "remaining activity at 2 µM", "setting": "PDGFRα(h); 2.0 μM", "result": 20, "unit": "%"}, {"measurement": "remaining activity at 0.2 µM", "setting": "RIPK2(h)", "result": 101, "unit": "%"}, {"measurement": "remaining activity at 0.2 µM", "setting": "MKK6(h); 0.2 μM", "result": 43, "unit": "%"}, {"measurement": "remaining activity at 2 µM", "setting": "MKK6(h); 2.0 μM", "result": 8, "unit": "%"}, {"measurement": "remaining activity at 0.2 µM", "setting": "PKCε(h)", "result": 106, "unit": "%"}, {"measurement": "remaining activity at 0.2 µM", "setting": "Tie2(h)", "result": 93, "unit": "%"}, {"measurement": "remaining activity at 0.2 µM", "setting": "PAK4(h)", "result": 92, "unit": "%"}, {"measurement": "remaining activity at 0.2 µM", "setting": "IKKα(h)", "result": 101, "unit": "%"}, {"measurement": "remaining activity at 0.2 µM", "setting": "SGK(h)", "result": 99, "unit": "%"}, {"measurement": "remaining activity at 0.2 µM", "setting": "MAPKAP-K3(h)", "result": 98, "unit": "%"}, {"measurement": "remaining activity at 0.2 µM", "setting": "PRAK(h); 0.2 μM", "result": 20, "unit": "%"}, {"measurement": "remaining activity at 2 µM", "setting": "PRAK(h); 2.0 μM", "result": 1, "unit": "%"}, {"measurement": "remaining activity at 0.2 µM", "setting": "Fgr(h)", "result": 100, "unit": "%"}, {"measurement": "remaining activity at 0.2 µM", "setting": "CDK1/cyclinB(h)", "result": 89, "unit": "%"}, {"measurement": "remaining activity at 0.2 µM", "setting": "ErbB4(h)", "result": 124, "unit": "%"}, {"measurement": "remaining activity at 0.2 µM", "setting": "CDK2/cyclinE(h)", "result": 105, "unit": "%"}, {"measurement": "remaining activity at 0.2 µM", "setting": "Rsk2(h)", "result": 91, "unit": "%"}]}]}
